Several values for one entry are separate records, joined by “and”; a condition that tells them apart may be missing. Equal entries are not always repeated. Each block holds one compound with its values, some of them ahead of it.
System: NCI-H196 complex spheroid growth, percent test/control
Assay: Anticancer human tumor NCI-H196 cell line growth inhibition [AhR];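 also: seven days of drug exposure starting three days after plating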;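 as to viability, T/C: 100% = DMSO vehicle control wells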
Details: for viability, T/C: stronger effect = lower value
Summary of the method: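 Complex tumor spheroids co-cultured with HUVEC and human MSC stroma; AhR antagonists tested in combination with standard-of-care and investigational agents. Top concentration at or near clinical Cmax (else 10 microM), half-log dilutions; growth expressed as percent test/control.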

[1] = curve of first compound, second compound 0.1 µM
[2] = curve of first compound, second compound 0.316 µM
[3] = curve of first compound, second compound 1 µM
[4] = curve of first compound, second compound 3.16 µM
[5] = curve of first compound, second compound 10 µM
[6] = second compound 0.1 µM, first compound 0.0316 µM
[7] = second compound 0.1 µM, first compound 0.1 µM
[8] = second compound 0.1 µM, first compound 0.316 µM
[9] = second compound 0.1 µM, first compound 1 µM
[10] = second compound 0.1 µM, first compound 3.16 µM
[11] = second compound 0.1 µM, first compound 10 µM
[12] = second compound 0.316 µM, first compound 0.0316 µM
[13] = second compound 0.316 µM, first compound 0.1 µM
[14] = second compound 0.316 µM, first compound 0.316 µM
[15] = second compound 0.316 µM, first compound 1 µM
[16] = second compound 0.316 µM, first compound 3.16 µM
[17] = second compound 0.316 µM, first compound 10 µM
[18] = second compound 1 µM, first compound 0.0316 µM
[19] = second compound 1 µM, first compound 0.1 µM
[20] = second compound 1 µM, first compound 0.316 µM
[21] = second compound 1 µM, first compound 1 µM
[22] = second compound 1 µM, first compound 3.16 µM
[23] = second compound 1 µM, first compound 10 µM
[24] = second compound 3.16 µM, first compound 0.0316 µM
[25] = second compound 3.16 µM, first compound 0.1 µM
[26] = second compound 3.16 µM, first compound 0.316 µM
[27] = second compound 3.16 µM, first compound 1 µM
[28] = second compound 3.16 µM, first compound 3.16 µM
[29] = second compound 3.16 µM, first compound 10 µM
[30] = second compound 10 µM, first compound 0.0316 µM
[31] = second compound 10 µM, first compound 0.1 µM
[32] = second compound 10 µM, first compound 0.316 µM
[33] = second compound 10 µM, first compound 1 µM
[34] = second compound 10 µM, first compound 3.16 µM
[35] = second compound 10 µM, first compound 10 µM

SMILES: O=C(c1cc(Cc2n[nH]c(=O)c3ccccc23)ccc1F)N1CCN(C(=O)C2CC2)CC1
viability, T/C (compound 0.0316 µM): 106% and 105% and 100%
viability, T/C (compound 0.1 µM): 105% and 112% and 108%
viability, T/C (compound 0.316 µM): 99.7% and 98.5% and 104%
viability, T/C (compound 1 µM): 97.2% and 98.1% and 105%
viability, T/C (compound 3.16 µM): 97.2% and 96.9% and 99.9%
viability, T/C (compound 10 µM): 99.7% and 103% and 99.5%
IC50 (curve of compound): > 10 µM

SMILES: CC1COCCN1c1cc(C2(S(C)(=N)=O)CC2)nc(-c2ccnc3[nH]ccc23)n1 (configuration not stated) + CC(CO)NC(=O)c1cc(-c2ccc(Cl)cc2)nn(-c2cnn(C)c2)c1=O
IC50 [1]: > 10 µM
IC50 [2]: > 10 µM
IC50 [3]: > 10 µM
IC50 [4]: > 10 µM
IC50 [5]: > 10 µM
viability, T/C [6]: 106%
viability, T/C [7]: 115%
viability, T/C [8]: 98.6%
viability, T/C [9]: 117%
viability, T/C [10]: 101%
viability, T/C [11]: 87%
viability, T/C [12]: 103%
viability, T/C [13]: 110%
viability, T/C [14]: 114%
viability, T/C [15]: 104%
viability, T/C [16]: 89.8%
viability, T/C [17]: 91.1%
viability, T/C [18]: 113%
viability, T/C [19]: 114%
viability, T/C [20]: 114%
viability, T/C [21]: 109%
viability, T/C [22]: 100%
viability, T/C [23]: 85.8%
viability, T/C [24]: 119%
viability, T/C [25]: 126%
viability, T/C [26]: 106%
viability, T/C [27]: 111%
viability, T/C [28]: 99.3%
viability, T/C [29]: 83.8%
viability, T/C [30]: 113%
viability, T/C [31]: 115%
viability, T/C [32]: 109%
viability, T/C [33]: 120%
viability, T/C [34]: 103%
viability, T/C [35]: 81.8%

SMILES: CC1COCCN1c1cc(C2(S(C)(=N)=O)CC2)nc(-c2ccnc3[nH]ccc23)n1 (configuration not stated) + Cc1cncc(-c2nc(NCCc3c[nH]c4ccccc34)c3ncn(C(C)C)c3n2)c1
IC50 [1]: > 10 µM
IC50 [2]: > 10 µM
IC50 [3]: > 10 µM
IC50 [4]: > 10 µM
IC50 [5]: > 10 µM
viability, T/C [6]: 104%
viability, T/C [7]: 103%
viability, T/C [8]: 91%
viability, T/C [9]: 90.1%
viability, T/C [10]: 88.9%
viability, T/C [11]: 74.5%
viability, T/C [12]: 100%
viability, T/C [13]: 101%
viability, T/C [14]: 101%
viability, T/C [15]: 90.3%
viability, T/C [16]: 85.3%
viability, T/C [17]: 64.5%
viability, T/C [18]: 98.5%
viability, T/C [19]: 96%
viability, T/C [20]: 99.8%
viability, T/C [21]: 96.9%
viability, T/C [22]: 86.9%
viability, T/C [23]: 73.1%
viability, T/C [24]: 108%
viability, T/C [25]: 103%
viability, T/C [26]: 104%
viability, T/C [27]: 96%
viability, T/C [28]: 98.8%
viability, T/C [29]: 71.9%
viability, T/C [30]: 77.3%
viability, T/C [31]: 96.6%
viability, T/C [32]: 87.6%
viability, T/C [33]: 83.7%
viability, T/C [34]: 79.3%
viability, T/C [35]: 76.4%

Continued, in another order:

IC50 [1]: > 10 µM
IC50 [2]: > 10 µM
IC50 [3]: > 10 µM
IC50 [4]: > 10 µM
IC50 [5]: > 10 µM
SMILES: CC(C)c1c(-c2ccccc2)nc2c(C#N)c[nH]n2c1=O + Cc1cncc(-c2nc(NCCc3c[nH]c4ccccc34)c3ncn(C(C)C)c3n2)c1
viability, T/C [6]: 107%
viability, T/C [7]: 110%
viability, T/C [8]: 105%
viability, T/C [9]: 100%
viability, T/C [10]: 117%
viability, T/C [11]: 106%
viability, T/C [12]: 103%
viability, T/C [13]: 120%
viability, T/C [14]: 113%
viability, T/C [15]: 109%
viability, T/C [16]: 113%
viability, T/C [17]: 107%
viability, T/C [18]: 120%
viability, T/C [19]: 112%
viability, T/C [20]: 115%
viability, T/C [21]: 103%
viability, T/C [22]: 112%
viability, T/C [23]: 101%
viability, T/C [24]: 116%
viability, T/C [25]: 117%
viability, T/C [26]: 119%
viability, T/C [27]: 102%
viability, T/C [28]: 115%
viability, T/C [29]: 112%
viability, T/C [30]: 75.9%
viability, T/C [31]: 86.7%
viability, T/C [32]: 89.5%
viability, T/C [33]: 86.9%
viability, T/C [34]: 80.7%
viability, T/C [35]: 80.7%

IC50 [1]: > 1 µM
IC50 [2]: > 1 µM
IC50 [3]: > 1 µM
IC50 [4]: > 1 µM
IC50 [5]: > 1 µM
SMILES: Nc1ncn(C2CC(O)C(CO)O2)c(=O)n1 (configuration not stated) + CC(CO)NC(=O)c1cc(-c2ccc(Cl)cc2)nn(-c2cnn(C)c2)c1=O
viability, T/C (second compound 0.1 µM, first compound 0.00316 µM): 112%
viability, T/C (second compound 0.1 µM, first compound 0.01 µM): 117%
viability, T/C [6]: 105%
viability, T/C [7]: 106%
viability, T/C [8]: 120%
viability, T/C [9]: 126%
viability, T/C (second compound 0.316 µM, first compound 0.00316 µM): 107%
viability, T/C (second compound 0.316 µM, first compound 0.01 µM): 116%
viability, T/C [12]: 114%
viability, T/C [13]: 107%
viability, T/C [14]: 114%
viability, T/C [15]: 120%
viability, T/C (second compound 1 µM, first compound 0.00316 µM): 120%
viability, T/C (second compound 1 µM, first compound 0.01 µM): 118%
viability, T/C [18]: 128%
viability, T/C [19]: 108%
viability, T/C [20]: 110%
viability, T/C [21]: 115%
viability, T/C (second compound 3.16 µM, first compound 0.00316 µM): 126%
viability, T/C (second compound 3.16 µM, first compound 0.01 µM): 130%
viability, T/C [24]: 120%
viability, T/C [25]: 104%
viability, T/C [26]: 121%
viability, T/C [27]: 115%
viability, T/C (second compound 10 µM, first compound 0.00316 µM): 141%
viability, T/C (second compound 10 µM, first compound 0.01 µM): 119%
viability, T/C [30]: 137%
viability, T/C [31]: 114%
viability, T/C [32]: 133%
viability, T/C [33]: 116%

IC50 [1]: > 0.3 µM
IC50 [2]: > 0.3 µM
IC50 [3]: > 0.3 µM
IC50 [4]: > 0.3 µM
IC50 [5]: > 0.3 µM
SMILES: Nc1ncn(C2CC(O)C(CO)S2)c(=O)n1 (configuration not stated) + CC(CO)NC(=O)c1cc(-c2ccc(Cl)cc2)nn(-c2cnn(C)c2)c1=O
viability, T/C (second compound 0.1 µM, first compound 0.000949 µM): 104%
viability, T/C (second compound 0.1 µM, first compound 0.003 µM): 94.2%
viability, T/C (second compound 0.1 µM, first compound 0.00949 µM): 103%
viability, T/C (second compound 0.1 µM, first compound 0.03 µM): 108%
viability, T/C (second compound 0.1 µM, first compound 0.0949 µM): 116%
viability, T/C (second compound 0.1 µM, first compound 0.3 µM): 103%
viability, T/C (second compound 0.316 µM, first compound 0.000949 µM): 105%
viability, T/C (second compound 0.316 µM, first compound 0.003 µM): 104%
viability, T/C (second compound 0.316 µM, first compound 0.00949 µM): 94.2%
viability, T/C (second compound 0.316 µM, first compound 0.03 µM): 101%
viability, T/C (second compound 0.316 µM, first compound 0.0949 µM): 113%
viability, T/C (second compound 0.316 µM, first compound 0.3 µM): 105%
viability, T/C (second compound 1 µM, first compound 0.000949 µM): 107%
viability, T/C (second compound 1 µM, first compound 0.003 µM): 104%
viability, T/C (second compound 1 µM, first compound 0.00949 µM): 112%
viability, T/C (second compound 1 µM, first compound 0.03 µM): 110%
viability, T/C (second compound 1 µM, first compound 0.0949 µM): 112%
viability, T/C (second compound 1 µM, first compound 0.3 µM): 118%
viability, T/C (second compound 3.16 µM, first compound 0.000949 µM): 106%
viability, T/C (second compound 3.16 µM, first compound 0.003 µM): 101%
viability, T/C (second compound 3.16 µM, first compound 0.00949 µM): 110%
viability, T/C (second compound 3.16 µM, first compound 0.03 µM): 114%
viability, T/C (second compound 3.16 µM, first compound 0.0949 µM): 120%
viability, T/C (second compound 3.16 µM, first compound 0.3 µM): 127%
viability, T/C (second compound 10 µM, first compound 0.000949 µM): 108%
viability, T/C (second compound 10 µM, first compound 0.003 µM): 116%
viability, T/C (second compound 10 µM, first compound 0.00949 µM): 118%
viability, T/C (second compound 10 µM, first compound 0.03 µM): 114%
viability, T/C (second compound 10 µM, first compound 0.0949 µM): 111%
viability, T/C (second compound 10 µM, first compound 0.3 µM): 112%

— PubChem BioAssay AID1919016 (Molecular Pharmacology Branch, DTP, NCI, 2023)
